Measured values published in patent publication US6723710B2, “Compositions for inhibiting arginase activity” (The Trustees of the University of Pennsylvania, priority 1997, dated 2004).
“Also recorded” adds a separate entry of the source.

Legend:
[1] = tested on: penile corpus cavernosum smooth muscle; experiment: organ bath, NANC nerve-mediated relaxation of penile corpus cavernosum tissue strips; parameters: species or system rabbit
From the text: Penile cavernosal tissue strips were obtained from male New Zealand white rabbits (3.0-3.5 kilogram body weight) and mounted in organ bath preparations, as described (Kim et al., 1991, J. Clin. Invest. 88:112-118). Tissues strips at optimal isometric tension were contracted using 40 nanomolar endothelin-1 and subjected to electrical field stimulation (EFS), by means of two platinum plate electrodes positioned on either side of the tissue and a current amplifier in series with a square pulse stimulator. Each stimulation period lasted 20 seconds with trains of square waves having a pulse duration of 0.5 milliseconds and a potential difference of 10 volts. Frequency was varied from 1 to 10 Hertz. For all experiments, NANC responses were isolated in tissue strips by treatment with indomethacin to inhibit vasoactive prostanoid synthesis, 10 micromolar bretylium to inhibit adrenergic neurotransmission, and 1 micromolar atropine to block muscarinic acetylcholine receptors. All tissues were first subject to EFS in the absence of ABHA, and then stimulations were repeated in the presence of increasing concentrations (0.1 to 1.0 millimolar) ABHA following a 20 minute incubation period. […] Responses were further analyzed by determining the ratios of the responses in the presence and absence of ABHA treatment.

[2] = tested on: internal anal sphincter (IAS) smooth muscle; experiment: NANC nerve-mediated relaxation of IAS smooth muscle strips by electrical field stimulation; parameters: species or system opossum (Didelphis virginiana); details: for decrease in basal IAS tension after ABHA: 1×10^−4 molar
From the text: The entire anal canal was isolated carefully by dissection and transferred to a dissecting tray containing oxygenated (95% O2 plus 5% CO2) Krebs' solution. The composition of the Krebs' solution was as follows (in millimolar): NaCl, 118.07; KCl 4.69; […] MgSO4, 1.16; […] NaHCO3, 25 and glucose (Pufahl et al., 1995, Biochemistry 34:1930-1941; […] et al., 1993, Biochem. Biophys. Res. Commun. 196:1558-1565). The anal canal was cleaned of extraneous connective tissue and blood vessels. Following this, the anal canal was opened by making an incision along the longitudinal axis, and was pinned flat with the mucosal side facing up. The mucosa and submucosa were removed by sharp dissection. Circular smooth muscle strips were obtained from the whole circumference of the anal canal and divided into two equal strips (about 1×8 millimeters). Both ends of the muscle strips were secured with silk sutures (4-0: Ethicon Inc., Sommerville, N.J.) and used for the measurement of isometric tension. […] One end of each muscle strip was fixed to the bottom of the muscle bath with a tissue holder and the other end was attached to an isometric force transducer (model FT03; Grass Instruments Co., Quincy, Mass.) in order to measure isometric tension. Smooth muscle tension was recorded using a […] recorder (model […]; Beckman Instruments, Schiller Park, Ill.). […] J. Physiol. 255:[…]-[…]). Only those smooth muscle strips that developed spontaneous and steady tension and relaxed in response to electrical field stimulation (EFS) were used. EFS was delivered, via a pair of platinum wires, from a Grass stimulator (Model S88; Grass Instruments Co., Quincy, Mass.) connected in series to a Med-Lab […] (Med-Lab Instruments, Loveland, Colo.). […] These parameters of EFS are known to cause relaxation of IAS smooth muscle by selective activation of NANC myenteric neurons. Neurally-mediated relaxation of IAS smooth muscle strips was quantified in response to different frequencies of EFS. […] To determine the influence of arginase on NANC nerve-mediated relaxation of IAS, the effects of different doses of arginase on relaxation were first determined. […] The effectiveness of arginase inhibitors (L-OH-Arg and ABHA) on arginase-induced attenuation of EFS-induced IAS relaxation was then tested. Optimal doses of arginase and L-OH-Arg in IAS have been reported ([…] and […]. Pharmacol. Exp. Ther. 282:378-384). In order to determine the selectivity of arginase inhibitors in IAS, their effects on IAS relaxation suppressed by the NO synthase inhibitor L-NNA ([…]) were tested. […] To examine the physiological relevance of arginase inhibitors in IAS relaxation, the influence of selected concentrations of arginase inhibitors on EFS-induced IAS relaxation was examined. […] Each smooth muscle strip served as its own control. […] The results are expressed as means±standard error.

[3] = target: IAS arginase activity; experiment: arginase activity in IAS homogenate; assay type: biochemical, opossum
From the text: Tissue samples of the opossum internal anal sphincter muscle (IAS), adjoining rectal tissue, liver, and brain were homogenized using an ULTRATURRAX™ tissue homogenizer (Tekamr, Cincinnati, Ohio) in a solution comprising 10 millimolar Tris-HCl, 150 millimolar KCl, and 25 millimolar MnCl2, at pH 7.4. The homogenates were dialyzed overnight against the same solution. Dialyzed homogenates were centrifuged to remove insoluble material and concentrated with Amicon CENTRICON™ 30 microconcentrators to yield stock protein preparations having protein concentrations of 2.4 milligrams per milliliter for IAS smooth muscle, 3.6 milligrams per milliliter for rectal smooth muscle, 3 milligrams per milliliter for brain, and 17.5 milligrams per milliliter for liver. Protein concentrations were estimated with the Pierce Coomassie Protein Reagent kit using bovine serum albumin as a standard.
Arginase activity in tissue homogenates was evaluated using the radioactive L-[guanidino^14C]arginine assay of Rüegg and Russell (1980, Anal. Biochem. 102:206-212). Assays were performed using a solution comprising 100 millimolar CHES-NaOH and 0.1 millimolar MnCl2 at pH 9.0. The reactions were initiated by addition of 5 microliters of tissue homogenate to 45 microliters of reaction mixture that contained the CHES buffer, the appropriate concentration of arginine (0.5 to 5 millimolar) and about 5.0×10^4 counts per minute of L-[guanidino-^14C]arginine. IAS, rectal muscle, and brain homogenates were incubated with the assay mixture at room temperature for one hour, and the liver sample was incubated for 5 minutes. […] Urea was separated from non-reacted L-[guanidino-^14C]arginine by treatment with 200 μl of 1:1 v/v slurry of DOWEX™ 50W-X8 in water, and quantitated by adding 200 microliters of the supernatant from the DOWEX™ treatment to 3 milliliters of LIQUISCENT™ (National Diagnostics) for liquid scintillation counting in a Beckman LS 5000CE counter. The data were analyzed using double-reciprocal plots of the initial velocity measurements; standard errors were determined by regression analysis. […]

**Q.** How did the “enhancement of relaxation in response to EFS” value ([1]; 0.1 to 1.0 millimolar ABHA, 1 to 10 Hertz) turn out when `N[C@@H](CCCCB(O)O)C(=O)O` [compound 7, 2(S)-amino-6-boronohexanoic acid] was run?
**A.** significant enhancement; also recorded: significantly enhanced relaxation; also recorded: statistically significant

**Q.** What about the “relaxation in the absence of electrical stimulation” value ([1]; corpus cavernosum strips contracted with endothelin-1) of the same compound?
**A.** moderate relaxation

**Q.** What about the “decrease in basal IAS tension after ABHA” value ([2]; 0.5 Hertz EFS) of the same compound?
**A.** 56.5±7.0%

**Q.** What about the “decrease in basal IAS tension after ABHA” value ([2]; 1 Hertz EFS) of the same compound?
**A.** 73.6±3.5%

**Q.** What about the “effect on arginase-suppressed EFS-induced IAS relaxation” value ([2]; exogenous arginase, L-HO-Arg 1×10^−4 molar, listed as ABHA) of the same compound?
**A.** reversal

**Q.** What about the “augmentation of NANC nerve-mediated IAS relaxation by EFS” value ([2]; lower frequencies of EFS, listed as ABHA) of the same compound?
**A.** significant and concentration-dependent augmentation

**Q.** And the “reversal of L-NNA-suppressed IAS relaxation” value ([2]; with L-NNA, L-HO-Arg and ABHA 3×10^−4 molar)?
**A.** did not cause any reversal; also recorded: no effect

**Q.** What about the IC50 ([3]; IAS, read-out: IC50 for inhibition of arginase activity, IAS homogenate) of the same compound?
**A.** 100 nM

**Q.** What about the Ki ([3]; arginine fixed at Km, assuming competitive inhibition, read-out: estimated Ki, IAS arginase activity) of the same compound?
**A.** 50 nM
